Values joined by “and” are separate entries in the source; they are usually repeats but may differ in a detail not shown here. Equal entries are not always repeated. Where two headings read alike, the source gives them in different places.
Columns and labels:
PI3K-α = PI3K-α (Homo sapiens, UniProt P42336); assay: PI3K-alpha fluorescence polarization assay; details: read-out: IC50 PI3Kα
PI3K-γ = PI3K-γ (Homo sapiens, UniProt P48736); assay: PI3K-gamma fluorescence polarization assay
Human mTOR (FLAG-TOR) = Human mTOR (FLAG-TOR) (Homo sapiens, UniProt P42345); assay: mTOR kinase assay (DELFIA format, purified enzyme); type: biochemical; details: read-out: IC50 mTOR
Sequence of Human mTOR (FLAG-TOR) (P42345 1360-2549 limits assumed): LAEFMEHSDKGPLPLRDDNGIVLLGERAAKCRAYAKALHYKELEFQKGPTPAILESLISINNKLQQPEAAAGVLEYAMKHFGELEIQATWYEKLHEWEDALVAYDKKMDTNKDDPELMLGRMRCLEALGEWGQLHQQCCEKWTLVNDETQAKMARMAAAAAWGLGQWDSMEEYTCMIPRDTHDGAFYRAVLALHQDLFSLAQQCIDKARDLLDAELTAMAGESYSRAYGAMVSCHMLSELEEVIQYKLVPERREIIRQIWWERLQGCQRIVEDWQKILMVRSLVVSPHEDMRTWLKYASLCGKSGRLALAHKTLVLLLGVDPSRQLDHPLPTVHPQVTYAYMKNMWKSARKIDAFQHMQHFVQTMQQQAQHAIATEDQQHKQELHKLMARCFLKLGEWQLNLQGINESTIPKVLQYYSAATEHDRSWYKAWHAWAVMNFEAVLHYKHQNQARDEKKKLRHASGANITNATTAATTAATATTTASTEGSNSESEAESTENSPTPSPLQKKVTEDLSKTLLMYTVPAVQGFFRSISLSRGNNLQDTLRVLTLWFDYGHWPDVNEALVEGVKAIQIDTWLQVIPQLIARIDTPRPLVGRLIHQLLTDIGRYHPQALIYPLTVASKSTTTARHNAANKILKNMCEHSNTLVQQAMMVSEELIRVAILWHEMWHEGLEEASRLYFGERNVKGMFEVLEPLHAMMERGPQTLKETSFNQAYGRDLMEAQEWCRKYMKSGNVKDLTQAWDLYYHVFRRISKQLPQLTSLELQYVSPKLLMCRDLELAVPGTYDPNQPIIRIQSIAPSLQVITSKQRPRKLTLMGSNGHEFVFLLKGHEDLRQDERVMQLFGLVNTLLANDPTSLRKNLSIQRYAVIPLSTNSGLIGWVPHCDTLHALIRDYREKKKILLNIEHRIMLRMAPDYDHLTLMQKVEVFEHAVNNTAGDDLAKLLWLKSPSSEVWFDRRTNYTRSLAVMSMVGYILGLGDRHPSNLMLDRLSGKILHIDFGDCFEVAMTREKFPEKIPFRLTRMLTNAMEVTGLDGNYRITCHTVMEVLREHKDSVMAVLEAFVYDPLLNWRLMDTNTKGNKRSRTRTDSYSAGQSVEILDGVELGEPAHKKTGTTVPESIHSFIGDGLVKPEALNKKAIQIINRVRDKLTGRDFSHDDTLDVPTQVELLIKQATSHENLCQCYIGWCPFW

[1] = test system: human prostate LNCap tumor cell line; assay: In vitro cell culture growth assay (MTS), LNCap; details: read-out: IC50 LNCap

Sequence of PI3K-γ (P48736 whole entry, species assumed): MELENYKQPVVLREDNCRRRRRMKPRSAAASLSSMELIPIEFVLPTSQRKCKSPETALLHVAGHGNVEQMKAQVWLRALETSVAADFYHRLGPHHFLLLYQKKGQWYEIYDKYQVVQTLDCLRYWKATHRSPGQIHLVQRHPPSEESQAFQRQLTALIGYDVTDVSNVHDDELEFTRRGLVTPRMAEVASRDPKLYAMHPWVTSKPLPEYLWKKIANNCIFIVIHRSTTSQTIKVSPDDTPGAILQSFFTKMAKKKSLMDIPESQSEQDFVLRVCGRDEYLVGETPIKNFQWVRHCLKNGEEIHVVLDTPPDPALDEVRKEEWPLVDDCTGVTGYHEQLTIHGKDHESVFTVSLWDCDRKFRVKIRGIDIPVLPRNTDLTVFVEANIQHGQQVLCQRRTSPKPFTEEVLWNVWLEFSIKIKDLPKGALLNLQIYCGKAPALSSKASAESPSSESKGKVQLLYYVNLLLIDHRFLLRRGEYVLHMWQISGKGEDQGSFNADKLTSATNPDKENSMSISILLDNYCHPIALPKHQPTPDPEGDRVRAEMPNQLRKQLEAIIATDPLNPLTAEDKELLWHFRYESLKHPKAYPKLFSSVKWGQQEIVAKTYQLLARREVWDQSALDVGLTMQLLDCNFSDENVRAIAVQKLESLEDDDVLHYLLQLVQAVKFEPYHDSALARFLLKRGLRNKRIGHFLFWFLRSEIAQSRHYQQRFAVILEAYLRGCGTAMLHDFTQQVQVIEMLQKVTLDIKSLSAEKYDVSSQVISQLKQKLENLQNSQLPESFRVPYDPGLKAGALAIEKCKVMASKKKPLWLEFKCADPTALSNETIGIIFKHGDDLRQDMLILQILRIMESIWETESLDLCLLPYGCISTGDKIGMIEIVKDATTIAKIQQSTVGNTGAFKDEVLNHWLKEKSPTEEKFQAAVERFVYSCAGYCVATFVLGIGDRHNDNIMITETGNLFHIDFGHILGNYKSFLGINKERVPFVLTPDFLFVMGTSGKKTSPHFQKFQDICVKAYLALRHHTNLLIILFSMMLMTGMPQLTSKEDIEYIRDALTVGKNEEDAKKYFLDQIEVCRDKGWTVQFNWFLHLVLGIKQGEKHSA
Sequence of PI3K-α (P42336 whole entry, species assumed): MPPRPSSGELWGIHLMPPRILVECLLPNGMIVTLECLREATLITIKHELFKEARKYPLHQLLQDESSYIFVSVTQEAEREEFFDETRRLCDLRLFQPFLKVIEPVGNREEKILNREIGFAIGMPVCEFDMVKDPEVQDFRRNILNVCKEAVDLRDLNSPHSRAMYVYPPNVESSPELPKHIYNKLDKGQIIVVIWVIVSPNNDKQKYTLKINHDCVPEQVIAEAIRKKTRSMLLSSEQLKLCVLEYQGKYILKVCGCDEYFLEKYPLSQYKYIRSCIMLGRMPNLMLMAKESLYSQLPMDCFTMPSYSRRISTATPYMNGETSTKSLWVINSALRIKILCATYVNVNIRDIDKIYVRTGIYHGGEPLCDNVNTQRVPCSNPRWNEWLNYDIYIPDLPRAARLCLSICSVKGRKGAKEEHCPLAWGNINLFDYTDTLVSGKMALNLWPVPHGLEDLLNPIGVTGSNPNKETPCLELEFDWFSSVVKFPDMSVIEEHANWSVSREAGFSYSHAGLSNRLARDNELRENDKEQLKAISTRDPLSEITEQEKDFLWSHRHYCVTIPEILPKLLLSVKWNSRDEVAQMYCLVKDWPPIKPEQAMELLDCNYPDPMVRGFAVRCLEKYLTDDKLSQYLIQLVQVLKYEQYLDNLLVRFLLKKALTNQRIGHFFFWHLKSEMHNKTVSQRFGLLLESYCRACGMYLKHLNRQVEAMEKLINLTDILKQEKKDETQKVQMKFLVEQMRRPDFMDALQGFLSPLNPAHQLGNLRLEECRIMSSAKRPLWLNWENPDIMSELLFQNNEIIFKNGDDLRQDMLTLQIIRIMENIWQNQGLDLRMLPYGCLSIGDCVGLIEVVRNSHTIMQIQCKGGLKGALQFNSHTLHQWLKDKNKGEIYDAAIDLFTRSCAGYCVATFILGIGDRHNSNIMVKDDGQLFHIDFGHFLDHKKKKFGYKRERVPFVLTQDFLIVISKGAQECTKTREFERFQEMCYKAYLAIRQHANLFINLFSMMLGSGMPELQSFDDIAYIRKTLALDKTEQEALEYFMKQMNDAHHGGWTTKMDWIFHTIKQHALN
Sequence of PI3K-α (P27986 whole entry partner, species assumed): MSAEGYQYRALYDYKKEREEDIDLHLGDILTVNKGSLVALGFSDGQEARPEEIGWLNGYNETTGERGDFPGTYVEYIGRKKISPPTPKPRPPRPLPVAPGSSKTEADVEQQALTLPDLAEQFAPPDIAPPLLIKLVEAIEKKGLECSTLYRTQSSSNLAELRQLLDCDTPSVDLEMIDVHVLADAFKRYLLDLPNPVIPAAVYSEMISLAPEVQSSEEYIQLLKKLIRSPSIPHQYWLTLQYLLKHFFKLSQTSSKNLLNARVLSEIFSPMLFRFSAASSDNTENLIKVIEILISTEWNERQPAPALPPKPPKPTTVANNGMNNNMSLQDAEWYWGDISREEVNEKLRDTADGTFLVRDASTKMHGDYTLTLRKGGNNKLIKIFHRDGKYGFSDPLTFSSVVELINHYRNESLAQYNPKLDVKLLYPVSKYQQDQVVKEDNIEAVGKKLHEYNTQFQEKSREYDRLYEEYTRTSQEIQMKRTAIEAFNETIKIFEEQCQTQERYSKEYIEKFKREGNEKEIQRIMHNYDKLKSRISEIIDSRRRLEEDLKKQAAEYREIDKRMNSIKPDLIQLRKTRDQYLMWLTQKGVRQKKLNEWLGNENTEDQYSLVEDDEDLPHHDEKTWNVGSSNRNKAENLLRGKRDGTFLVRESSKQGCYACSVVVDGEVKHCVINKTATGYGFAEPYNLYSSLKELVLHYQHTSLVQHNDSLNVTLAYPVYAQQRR

Compound	IC50 (PI3K-α)	IC50 (PI3K-γ; read-out: IC50 PI3Kγ)	IC50 (Human mTOR (FLAG-TOR))	IC50 ([1]; Homo sapiens, LNCaP, 72 h)	IC50 (PI3K-γ)	IC50 ([1]; MTS cell growth assay, three days after drug treatment)
CN1CCN(c2ccc(Nc3nc(-c4ccc(NC(=O)NC5CC5)cc4)nc(N4CC5CCC(C4)O5)n3)cc2)CC1 [Example 316, 1-cyclopropyl-3-{4-[4-{[4-(4-methylpiperazin-1-yl)phenyl]amino}-6-(8-oxa-3-azabicyclo[3.2.1]oct-3-yl)-1,3,5-triazin-2-yl]phenyl}urea]	1410 nM	2690 nM	71 nM and 11 nM	320 nM	–	–
CN(C)C(=O)c1ccc(NC(=O)Nc2ccc(-c3nc(C4CCOCC4)nc(N4C5CCC4COC5)n3)cc2)cc1 [Example 455, 4-(3-(4-(4-(3-oxa-8-azabicyclo[3.2.1]octan-8-yl)-6-(tetrahydro-2H-pyran-4-yl)-1,3,5-triazin-2-yl)phenyl)ureido)-N,N-dimethylbenzamide]	113 nM	1390 nM	0.3 nM	< 0.8 nM	–	–
O=C(Nc1ccc(-c2nc(NCCN3CCOCC3)nc(N3CC4CCC(C3)O4)n2)cc1)Nc1cccnc1 [Example 155, 1-(4-{4-[(2-morpholin-4-ylethyl)amino]-6-(8-oxa-3-azabicyclo[3.2.1]oct-3-yl)-1,3,5-triazin-2-yl}phenyl)-3-pyridin-3-ylurea]	2300 nM	4940 nM	16 nM	400 nM	–	–
O=C(Nc1ccncc1)Nc1ccc(-c2nc(N3CCC(NCc4ccccc4)CC3)nc(N3CC4CCC(C3)O4)n2)cc1 [Example 117, 1-(4-{4-[4-(benzylamino)piperidin-1-yl]-6-(8-oxa-3-azabicyclo[3.2.1]oct-3-yl)-1,3,5-triazin-2-yl}phenyl)-3-pyridin-4-ylurea]	177 nM	3000 nM	83 nM	700 nM	–	–
CC(C)(C)OC(=O)N1CCN(c2nc(-c3ccc(NC(=O)Nc4ccncc4)cc3)nc(N3CC4CCC(C3)O4)n2)CC1 [Example 106, Tert-butyl 4-(4-(8-oxa-3-azabicyclo[3.2.1]octan-3-yl)-6-(4-(3-pyridin-4-ylureido)phenyl)-1,3,5-triazin-2-yl)piperazine-1-carboxylate]	393 nM	1840 nM	7.55 nM	370 nM	–	–
O=C(Nc1ccncc1)Nc1ccc(-c2nc(N3CCC(NCCN4CCOCC4)CC3)nc(N3CC4CCC(C3)O4)n2)cc1 [Example 124, 1-(4-(4-(8-oxa-3-azabicyclo[3.2.1]octan-3-yl)-6-(4-(2-morpholinoethylamino)piperidin-1-yl)-1,3,5-triazin-2-yl)phenyl)-3-(pyridin-4-yl)urea]	1650 nM	9650 nM	155 nM	1950 nM	–	–
C[C@@H]1COCCN1c1nc(-c2ccc(NC(=O)Nc3ccncc3)cc2)nc(N2C[C@@H]3C[C@H]2CO3)n1 [Example 410, 1-(4-(4-((1S,4S)-2-oxa-5-azabicyclo[2.2.1]heptan-5-yl)-6-((R)-3-methylmorpholino)-1,3,5-triazin-2-yl)phenyl)-3-(pyridin-4-yl)urea]	826 nM	5680 nM	2.3 nM	110 nM	–	–
CN(C)Cc1ccc(NC(=O)Nc2ccc(-c3nc(C4CCOCC4)nc(N4C5CCC4COC5)n3)cc2)cc1 [Example 409, 1-(4-(4-(3-oxa-8-azabicyclo[3.2.1]octan-8-yl)-6-(tetrahydro-2H-pyran-4-yl)-1,3,5-triazin-2-yl)phenyl)-3-(4-((dimethylamino)methyl)phenyl)urea]	856 nM	4490 nM	1.5 nM	50 nM	–	–
CCNC(=O)Nc1ccc(-c2nc(NC3CCNCC3)nc(N3C4CCC3COC4)n2)cc1 [Example 360, 1-(4-(4-(3-oxa-8-azabicyclo[3.2.1]octan-8-yl)-6-(piperidin-4-ylamino)-1,3,5-triazin-2-yl)phenyl)-3-ethylurea]	6670 nM	–	82 nM	10000 nM	> 10000 nM	–
CN1CCN(c2ccc(NC(=O)Nc3ccc(-c4nc(-c5ccc(NC(=O)Nc6ccc(N7CCN(C)CC7)cc6)cc5)nc(N5CC6CCC(C5)O6)n4)cc3)cc2)CC1 [Example 147, N′,N′″-{[6-(8-oxa-3-azabicyclo[3.2.1]oct-3-yl)-1,3,5-triazine-2,4-diyl]di-4,1-phenylene}bis{1-[4-(4-methylpiperazin-1-yl)phenyl]urea}]	1930 nM	6830 nM	6 nM	1000 nM	–	–
NC(=O)CNC1CCN(c2nc(-c3ccc(NC(=O)Nc4ccncc4)cc3)nc(N3CC4CCC(C3)O4)n2)CC1 [Example 126, 2-(1-(4-(8-oxa-3-azabicyclo[3.2.1]octan-3-yl)-6-(4-(3-pyridin-4-ylureido)phenyl)-1,3,5-triazin-2-yl)piperidin-4-ylamino)acetamide]	510 nM	5510 nM	19.5 nM	1300 nM	–	–
O=C(Nc1ccc(C(=O)N2CCCC2)cc1)Nc1ccc(-c2nc(C3CCOCC3)nc(N3C4CCC3COC4)n2)cc1 [Example 456, 1-(4-(4-(3-oxa-8-azabicyclo[3.2.1]octan-8-yl)-6-(tetrahydro-2H-pyran-4-yl)-1,3,5-triazin-2-yl)phenyl)-3-(4-(pyrrolidine-1-carbonyl)phenyl)urea]	150 nM	1550 nM	0.7 nM	< 0.8 nM	–	–
CC(C)Nc1nc(-c2ccc(NC(=O)Nc3ccc(OCCN(C)C)cc3)cc2)nc(N2C3CCC2COC3)n1 [Example 385, 1-(4-(4-(3-oxa-8-azabicyclo[3.2.1]octan-8-yl)-6-(isopropylamino)-1,3,5-triazin-2-yl)phenyl)-3-(4-(2-(dimethylamino)ethoxy)phenyl)urea]	3400 nM	4690 nM	5.7 nM	70 nM	–	–
C[C@@H]1COCCN1c1nc(-c2ccc(NC(=O)Nc3ccc(C(=O)N4CCN(C)CC4)cc3)cc2)nc(C2CCOCC2)n1 [Example 431, (R)-1-(4-(4-(3-methylmorpholino)-6-(tetrahydro-2H-pyran-4-yl)-1,3,5-triazin-2-yl)phenyl)-3-(4-(4-methylpiperazine-1-carbonyl)phenyl)urea]	43 nM	340 nM	1 nM	< 0.8 nM	–	–
C[C@@H]1COCCN1c1nc(-c2ccc(NC(=O)Nc3ccc(OCCN4CCCC4)cc3)cc2)nc(N2CCOC[C@H]2C)n1 [Example 403, 1-(4-(4,6-bis((R)-3-methylmorpholino)-1,3,5-triazin-2-yl)phenyl)-3-(4-(2-(pyrrolidin-1-yl)ethoxy)phenyl)urea]	314 nM	2380 nM	0.75 nM	8 nM	–	–
O=C(Nc1ccncc1)Nc1ccc(-c2nc(N3CC4CCC(C3)O4)nc(N3CC4CCC(C3)O4)n2)cc1 [Example 31, 1-[4-(4,6-di-8-oxa-3-azabicyclo[3.2.1]oct-3-yl-1,3,5-triazin-2-yl)phenyl]-3-pyridin-4-ylurea]	142 nM	3520 nM	0.49 nM	45 nM	–	–
CN1CCN(C2CCN(c3nc(-c4ccc(NC(=O)Nc5ccncc5)cc4)nc(N4CC5CCC(C4)O5)n3)CC2)CC1 [Example 122, 1-(4-(4-(8-oxa-3-azabicyclo[3.2.1]octan-3-yl)-6-(4-(4-methylpiperazin-1-yl)piperidin-1-yl)-1,3,5-triazin-2-yl)phenyl)-3-(pyridin-4-yl)urea]	1160 nM	9500 nM	74.5 nM	900 nM	–	–
CC(C)N1CCN(C(=O)c2ccc(NC(=O)Nc3ccc(-c4nc(C5CCOCC5)nc(N5CCOC[C@H]5C)n4)cc3)cc2)CC1 [Example 432, (R)-1-(4-(4-isopropylpiperazine-1-carbonyl)phenyl)-3-(4-(4-(3-methylmorpholino)-6-(tetrahydro-2H-pyran-4-yl)-1,3,5-triazin-2-yl)phenyl)urea]	90 nM	480 nM	0.69 nM	< 0.8 nM	–	–
CC(C)N1CCN(c2ccc(NC(=O)Nc3ccc(-c4nc(N5CCOC[C@H]5C)nc(N5CCOC[C@H]5C)n4)cc3)cc2)CC1 [Example 448, 1-(4-(4,6-bis((R)-3-methylmorpholino)-1,3,5-triazin-2-yl)phenyl)-3-(4-(4-isopropylpiperazin-1-yl)phenyl)urea]	519 nM	–	2.3 nM	18 nM	> 10000 nM	–
COCCNc1nc(-c2ccc(NC(=O)Nc3cccnc3)cc2)nc(N2CC3CCC(C2)O3)n1 [Example 258, 1-(4-{4-[(2-methoxyethyl)amino]-6-(8-oxa-3-azabicyclo[3.2.1]oct-3-yl)-1,3,5-triazin-2-yl}phenyl)-3-pyridin-3-ylurea]	403 nM	6170 nM	2.3 nM	60 nM	–	–
1-(4-(4-(3-oxa-8-azabicyclo[3.2.1]octan-8-yl)-6-(piperidin-4-ylamino)-1,3,5-triazin-2-yl)phenyl)-3-ethylurea [Example 361]	6030 nM	> 10000 nM	1.3 nM	–	–	2.2 nM
O=C(Nc1ccncc1)Nc1ccc(-c2nc(Cl)nc(N3CC4CCC(C3)O4)n2)cc1 [Example 160, 1-{4-[4-chloro-6-(8-oxa-3-azabicyclo[3.2.1]oct-3-yl)-1,3,5-triazin-2-yl]phenyl}-3-pyridin-4-ylurea]	358 nM	9070 nM	7 nM	220 nM	–	–
O=C(Nc1ccc(-c2nc(OCCN3CCCCC3)nc(N3CC4CCC(C3)O4)n2)cc1)Nc1cccnc1 [Example 173, 1-{4-[4-(8-oxa-3-azabicyclo[3.2.1]oct-3-yl)-6-(2-piperidin-1-ylethoxy)-1,3,5-triazin-2-yl]phenyl}-3-pyridin-3-ylurea]	1210 nM	–	84 nM	2500 nM	–	–

From patent publication US20090304692A1, “TRIAZINE COMPOUNDS AS PI3 KINASE AND MTOR INHIBITORS” (Wyeth, priority 2008, published 2009)
